Data set [1] addresses T1, human D3 (Homo sapiens, UniProt P35462).
T1 construct: expressed in transfected cells
The settings on record: compounds known from the prior art (WO 2004/004729), read-out: D3-bonding (Ki), comparative substance, cited from earlier work.

The target of a further data set is T2, 5-HT2 (Sus scrofa, UniProt P50129).
T2 construct: we incubated porcine cortex-membrane preparations; from tissue; host or cells: porcine cortex
Kind of data set: Radioligand binding, 5-HT2, porcine cortex membranes, [3H]ketanserin. The settings on record: average of 2-6 experiments in triplicate, read-out: Receptor binding Ki 5-HT2. As for the experimental part: (§1) Measurement of the binding strengths of the compounds to the serotonin-receptor subtypes 5-HT1a and 5-HT2 was carried out according to methods described by us (Heindl, C. et al. Tetrahedron: Asymmetry 2003, 14, 3141-3152). For this we incubated porcine cortex-membrane preparations with the radioligands [^3H]8-OH-DPAT (for 5-HT1a) or [^3H]ketanserin (5-HT2) and the compounds in various concentrations. In the same way the affinity of the test compounds to the porcine α1-receptor was investigated, wherein porcine cortex-membrane preparations and the α1-selective radioligand [^3H]prazosin were used.

A further data set addresses T3, D1-receptor (Sus scrofa, UniProt P50130).
T3 construct: native membrane homogenates, obtained from porcine striatum; from tissue; host or cells: porcine striatum
Kind of data set: Radioligand binding, D1-receptor, porcine striatum membranes, [3H]SCH 23390. The settings on record: average of 2-6 experiments in triplicate. As for the experimental part:
(§2) The biological activities of the compounds according to the invention were determined in radioligand binding investigations. All radioligand experiments were performed according to methods described by us (Hübner, H. et al. J. Med. Chem. 2000, 43, 756-762). For the measurement of the affinities to the receptors of the D2-family membrane homogenates of Chinese hamster ovary cells (CHO cells) were used, which stably express the human D2long-, the human D2short- (Hayes, G. et al. Mol. Endocrinol. 1992, 6, 920-926), the human D3- (Sokoloff, P. et al. Eur. J. Pharmacol. 1992, 225, 331-337) or the human D4.4-receptor sub-type, (Asghari, V. J. Neurochem. 1995, 65, 1157-1165) respectively. Basically the binding assays took place by incubation of the receptor homogenates with the radioligand [^3H]spiperone and the compounds under investigation in various concentrations. Determination of the affinities to the D1-receptor took place with native membrane homogenates, obtained from porcine striatum, and the D1-selective radioligands [^3H]SCH 23390.

The target in the next data set is T4, human D2long (Homo sapiens, UniProt P14416).
T4 construct: expressed in transfected cells
T4 sequence (P14416 whole entry): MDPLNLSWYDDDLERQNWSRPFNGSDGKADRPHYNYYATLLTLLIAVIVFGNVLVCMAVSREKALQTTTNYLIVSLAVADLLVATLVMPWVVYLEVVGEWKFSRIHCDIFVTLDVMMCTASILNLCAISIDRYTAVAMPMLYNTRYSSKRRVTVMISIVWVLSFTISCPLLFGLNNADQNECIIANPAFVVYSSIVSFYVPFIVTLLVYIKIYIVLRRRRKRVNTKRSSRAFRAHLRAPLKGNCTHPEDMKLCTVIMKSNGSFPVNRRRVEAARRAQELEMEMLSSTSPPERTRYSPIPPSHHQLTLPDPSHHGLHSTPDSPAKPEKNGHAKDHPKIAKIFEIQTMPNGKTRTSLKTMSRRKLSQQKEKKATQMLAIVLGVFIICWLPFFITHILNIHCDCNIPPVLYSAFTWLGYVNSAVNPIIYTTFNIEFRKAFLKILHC
Description: Radioligand binding, human D2long in CHO cell membranes, [3H]spiperone. As to conditions: human receptor in CHO membranes, average of 2-6 experiments in triplicate. Here is the method:
as §2

The target of another data set is T5, dopamine D3 receptor (Homo sapiens, UniProt P35462).
T5 construct: expressed in transfected cells
T5 sequence (P35462 whole entry): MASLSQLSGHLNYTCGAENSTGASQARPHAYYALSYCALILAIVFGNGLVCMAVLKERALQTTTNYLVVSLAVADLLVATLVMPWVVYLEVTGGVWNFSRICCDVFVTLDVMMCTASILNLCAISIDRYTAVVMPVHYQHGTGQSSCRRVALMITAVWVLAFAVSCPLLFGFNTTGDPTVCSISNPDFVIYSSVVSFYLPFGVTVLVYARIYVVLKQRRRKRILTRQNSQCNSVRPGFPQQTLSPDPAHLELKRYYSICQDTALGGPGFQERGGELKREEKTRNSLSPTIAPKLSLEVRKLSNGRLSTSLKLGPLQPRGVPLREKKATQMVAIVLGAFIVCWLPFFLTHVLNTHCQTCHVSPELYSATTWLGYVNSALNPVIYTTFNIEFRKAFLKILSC
Description: Mitogenesis assay, [3H]thymidine incorporation in D3 receptor-expressing cells. As to conditions: for EC50: dose-effect curve, seven concentrations in quadruplicate; for Agonistic activity: with reference to the maximum effect of the full agonist quinpirol. In kind it is cell-based. As for the experimental part:
Here various concentrations of the compounds under investigation were incubated with D3 receptor-expressing cells and then the receptor-mediated stimulation of the mitogenesis rate was measured by incorporation of the radioactive marker [^3H]thymidine.
For orientation: Incorporation of labelled thymidine or its analogues reports DNA synthesis.

The next data set has as its target T6, human D2short (Homo sapiens, UniProt P14416).
T6 construct: expressed in transfected cells
Description: Radioligand binding, human D2short in CHO cell membranes, [3H]spiperone. As to conditions: human receptor in CHO membranes, average of 2-6 experiments in triplicate. Here is the method: as §2

The target in another data set is porcine α1-receptor. Description: Radioligand binding, α1-receptor, porcine cortex membranes, [3H]prazosin. As to conditions: average of 2-6 experiments in triplicate, read-out: Receptor binding Ki alpha1. Here is the method: as §1
Data set [2] has as its target T1, human D3. Description: Radioligand binding, human D3 in CHO cell membranes, [3H]spiperone. Here is the method:
as §2

For another data set, the target named is T7, human D4.4 (Homo sapiens, UniProt P21917).
T7 construct: expressed in transfected cells
T7 sequence (P21917 1-419): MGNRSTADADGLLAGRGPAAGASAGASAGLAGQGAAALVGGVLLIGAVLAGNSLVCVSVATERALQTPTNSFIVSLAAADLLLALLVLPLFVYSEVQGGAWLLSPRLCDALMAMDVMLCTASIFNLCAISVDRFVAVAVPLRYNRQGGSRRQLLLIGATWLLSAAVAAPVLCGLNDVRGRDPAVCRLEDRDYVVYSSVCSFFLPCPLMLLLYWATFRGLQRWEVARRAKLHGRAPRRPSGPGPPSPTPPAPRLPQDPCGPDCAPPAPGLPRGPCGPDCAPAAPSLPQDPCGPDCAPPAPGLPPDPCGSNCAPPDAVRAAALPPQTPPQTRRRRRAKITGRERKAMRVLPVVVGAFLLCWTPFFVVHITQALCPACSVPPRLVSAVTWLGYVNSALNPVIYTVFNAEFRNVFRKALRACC
Kind of data set: Radioligand binding, human D4.4 in CHO cell membranes, [3H]spiperone. The settings on record: human D4.4 in CHO membranes, average of 2-6 experiments in triplicate, read-out: Receptor binding Ki D4. Here is the method: as §2

The next data set deals with T8, 5-HT1a (Sus scrofa, UniProt A0A4X1UTF5).
T8 construct: we incubated porcine cortex-membrane preparations; from tissue; host or cells: porcine cortex
T8 sequence (A0A4X1UTF5 1-422): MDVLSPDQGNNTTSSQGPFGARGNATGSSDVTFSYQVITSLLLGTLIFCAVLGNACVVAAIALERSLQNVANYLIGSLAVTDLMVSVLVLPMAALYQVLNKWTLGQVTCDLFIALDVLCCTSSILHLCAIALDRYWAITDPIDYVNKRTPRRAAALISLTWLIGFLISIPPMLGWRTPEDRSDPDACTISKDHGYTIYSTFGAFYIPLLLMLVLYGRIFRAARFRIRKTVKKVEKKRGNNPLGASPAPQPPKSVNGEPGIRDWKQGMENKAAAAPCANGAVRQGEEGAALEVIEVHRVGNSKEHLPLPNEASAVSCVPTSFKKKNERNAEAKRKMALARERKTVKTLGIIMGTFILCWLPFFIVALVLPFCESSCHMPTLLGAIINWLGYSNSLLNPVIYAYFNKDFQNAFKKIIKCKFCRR
Description: Radioligand binding, 5-HT1a, porcine cortex membranes, [3H]8-OH-DPAT. The settings on record: porcine 5-HT1a, average of 2-6 experiments in triplicate, read-out: Receptor binding Ki 5-HT1. As for the experimental part:
as §1

[3] abbreviates: Table 1c, read-out: D3-bonding (Ki), substance according to the invention.
The mark [4] stands for this setting: human receptor in CHO membranes, [3H]spiperone, average of 2-6 experiments in triplicate, read-out: Receptor binding Ki D3.
The mark [5] stands for this setting: Table 1a, read-out: D3-bonding (Ki), substance according to the invention.
[6] abbreviates: Table 1b, read-out: D3-bonding (Ki), substance according to the invention.

Where two headings read alike, the source gives them in different places.

Broadly, the Ki is a dissociation constant, usually derived from enzyme kinetics or from competition with a known ligand. What is called EC50 is the concentration at which the effect is half-maximal. High values mean a less potent agent, low ones a more potent agent. Broadly, the melting point is the temperature of the solid-liquid transition.

T3 sequence (P50130 whole entry): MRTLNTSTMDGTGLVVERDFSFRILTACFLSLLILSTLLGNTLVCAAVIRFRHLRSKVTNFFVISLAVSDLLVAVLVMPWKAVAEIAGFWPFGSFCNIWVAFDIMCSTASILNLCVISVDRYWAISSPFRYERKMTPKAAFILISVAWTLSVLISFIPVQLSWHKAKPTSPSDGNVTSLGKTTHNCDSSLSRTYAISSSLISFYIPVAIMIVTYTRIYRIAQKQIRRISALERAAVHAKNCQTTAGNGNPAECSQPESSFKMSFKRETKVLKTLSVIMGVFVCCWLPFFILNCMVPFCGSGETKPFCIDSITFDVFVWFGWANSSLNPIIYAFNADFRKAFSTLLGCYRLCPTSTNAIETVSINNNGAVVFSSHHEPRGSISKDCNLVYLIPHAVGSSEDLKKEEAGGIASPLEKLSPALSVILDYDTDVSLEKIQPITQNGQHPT
T1 sequence (P35462 whole entry): as the sequence (P35462 whole entry) above
T6 sequence (P14416 1-414 isoform P14416-2): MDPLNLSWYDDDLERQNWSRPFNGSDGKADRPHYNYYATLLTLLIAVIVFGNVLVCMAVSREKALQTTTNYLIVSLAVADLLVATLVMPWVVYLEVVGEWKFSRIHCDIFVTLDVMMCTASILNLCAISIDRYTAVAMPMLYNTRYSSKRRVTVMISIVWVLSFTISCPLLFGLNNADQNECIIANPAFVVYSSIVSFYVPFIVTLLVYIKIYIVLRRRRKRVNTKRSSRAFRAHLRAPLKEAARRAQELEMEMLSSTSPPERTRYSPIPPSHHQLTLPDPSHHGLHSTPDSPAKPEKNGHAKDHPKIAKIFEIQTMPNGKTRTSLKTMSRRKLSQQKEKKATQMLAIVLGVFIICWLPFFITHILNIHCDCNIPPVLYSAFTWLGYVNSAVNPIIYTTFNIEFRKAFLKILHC
T2 sequence (P50129 whole entry): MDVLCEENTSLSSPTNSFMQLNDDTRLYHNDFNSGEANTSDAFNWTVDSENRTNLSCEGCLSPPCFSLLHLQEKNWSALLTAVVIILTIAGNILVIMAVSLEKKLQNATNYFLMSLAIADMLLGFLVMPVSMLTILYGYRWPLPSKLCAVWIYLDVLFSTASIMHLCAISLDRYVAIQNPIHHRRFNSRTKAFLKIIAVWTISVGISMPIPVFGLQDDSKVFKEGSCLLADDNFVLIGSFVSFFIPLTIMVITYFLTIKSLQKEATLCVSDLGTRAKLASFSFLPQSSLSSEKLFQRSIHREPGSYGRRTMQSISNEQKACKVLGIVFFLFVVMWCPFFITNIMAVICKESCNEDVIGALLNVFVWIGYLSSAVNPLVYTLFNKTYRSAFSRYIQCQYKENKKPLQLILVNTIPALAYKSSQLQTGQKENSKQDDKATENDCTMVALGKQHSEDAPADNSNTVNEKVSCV

Regarding `N#Cc1ccc2cc(C(=O)NCCCCN3CCN(c4cccc(Cl)c4Cl)CC3)[nH]c2c1`, the Ki at human D3 [1] (Table 1a) was 0.35 nM.
`N#Cc1ccc2sc(C(=O)NCCCCN3CCN(c4cccc(Cl)c4Cl)CC3)cc2c1`: the Ki at human D3 [1] (Table 1c) was 0.25 nM.
Consider `O=C(NCCCCN1CCN(c2cccc3c2OCC3)CC1)c1cc2ccccc2s1` [Example 1, N-(4-(4-(2,3-dihydrobenzofuran-7-yl)piperazin-1-yl)butyl)benzo[b]thiophen-2-ylcarbamide], for which the Ki on 5-HT2 is 100 nM; at D1-receptor, 260 nM; at human D2long, 73 nM; on human D2short, 50 nM; on porcine α1-receptor, 4.2 nM; on human D3 [2] (setting [3]) it was 0.31 nM. In addition, the Ki on human D3 [2] (setting [4]) was found to be 0.31 nM; on human D4.4 it was 65 nM; at 5-HT1a it was 18 nM. This compound also had an EC50 at dopamine D3 receptor of 3.2 nM. For the same compound, the Agonistic activity at dopamine D3 receptor is given as 42%.
Turning to `O=C(NCCCCN1CCN(c2cccc3c2OCC3)CC1)c1cc2ccccc2[nH]1` [Example 2, N-(4-(4-(2,3-dihydrobenzofuran-7-yl)piperazin-1-yl)butyl)indol-2-ylcarbamide], the Ki at 5-HT2 was found to be 110 nM; at D1-receptor it was 300 nM; on human D2long, 45 nM; on human D2short it was 27 nM; at porcine α1-receptor, 2 nM; on human D3 [2] (setting [5]), 0.35 nM. The Ki on human D3 [2] (setting [4]) was determined as 0.16 nM; on human D4.4 it was 22 nM; on 5-HT1a, 30 nM. This compound also gave an Agonistic activity at dopamine D3 receptor of 0%.
As for `O=C(NCCCCN1CCN(c2cccc3c2OCCC3)CC1)c1cc2ccccc2s1` [Example 3, N-(4-(4-(chroman-8-yl)piperazin-1-yl)butyl)benzo[b]thiophen-2-ylcarbamide], the melting point was 134 °C. Further, the Ki on 5-HT2 stood at 77 nM. This compound had a Ki at D1-receptor of 300 nM. The Ki at human D2long was 110 nM. At dopamine D3 receptor, this compound gave an EC50 of 1.8 nM and an Agonistic activity of 38%. Also, the Ki at human D2short was found to be 83 nM. In addition, at porcine α1-receptor, the Ki amounted to 4.6 nM. For the same compound, the Ki on human D3 [2] (setting [3]) worked out at 0.16 nM. Also, on human D3 [2] (setting [4]), the Ki is 0.35 nM. Besides, the Ki at human D4.4 turned out to be 50 nM. The Ki at 5-HT1a stood at 17 nM.
`O=C(NCCCCN1CCN(c2cccc3c2OCCC3)CC1)c1cc2ccccc2[nH]1` [Example 4, N-(4-(4-(chroman-8-yl)piperazin-1-yl)butyl)indol-2-ylcarbamide]: the Ki on 5-HT2 turned out to be 110 nM; on D1-receptor, 290 nM; at human D2long, 42 nM; on human D2short it was 22 nM; at porcine α1-receptor, 2.3 nM; on human D3 [2] (setting [5]) it was 0.17 nM. The inhibitory constant (Ki) on human D3 [2] (setting [4]) came to 0.17 nM; on human D4.4 it was 34 nM; on 5-HT1a, 20 nM. For the same compound, the Agonistic activity at dopamine D3 receptor came out at 0%.
In the case of `O=C(NCCCCN1CCN(c2cccc3c2OCCCC3)CC1)c1cc2ccccc2s1` [Example 12, N-(4-(4-(2,3,4,5-tetrahydrobenzo[b]oxepin-9-yl)piperazin-1-yl)butyl)benzo[b]thiophen-2-ylcarbamide], the melting point was 124 °C. In addition, the Ki on human D3 [2] (setting [3]) was found to be 0.098 nM.
Consider `N#Cc1ccc2sc(C(=O)NCCCCN3CCN(c4cccc5c4OCCCC5)CC3)cc2c1` [Example 13, N-(4-(4-(2,3,4,5-tetrahydrobenzo[b]oxepin-9-yl)piperazin-1-yl)butyl)-5-cyanobenzo[b]thiophen-2-ylcarbamide], for which, on human D3 [2] (setting [3]), the Ki was 0.097 nM.
On to `O=C(NCCCCN1CCN(c2cccc3c2OCCCC3)CC1)c1cc2ccccc2o1` [Example 14, N-(4-(4-(2,3,4,5-tetrahydrobenzo[b]oxepin-9-yl)piperazin-1-yl)butyl)benzofuran-2-ylcarbamide], for which, on human D3 [2] (setting [6]), the Ki is 0.089 nM.
Consider `O=C(NCCCCN1CCN(c2cccc3c2OCCCC3)CC1)c1cc2ccccc2[nH]1` [Example 16, N-(4-(4-(2,3,4,5-tetrahydrobenzo[b]oxepin-9-yl)piperazin-1-yl)butyl)indol-2-ylcarbamide], for which, at human D3 [2] (setting [5]), the Ki came to 0.052 nM.
For the compound `N#Cc1ccc2cc(C(=O)NCCCCN3CCN(c4cccc5c4OCCCC5)CC3)[nH]c2c1` [Example 17, N-(4-(4-(2,3,4,5-tetrahydrobenzo[b]oxepin-9-yl)piperazin-1-yl)butyl)-6-cyanoindol-2-ylcarbamide], at human D3 [2] (setting [5]), the Ki worked out at 0.075 nM.
Take “N-(4-(4-(2,3,4,5-tetrahydrobenzo[b]oxepin-9-yl)piperazin-1-yl)butyl)-5-bromobenzofuran-2-ylcarbamide [Example 15]”: at human D3 [2] (setting [6]), the Ki is 0.11 nM.

Source of the values: US20080194539A1, “Phenyl Diazepane Carboxamides and Annelated Phenyl Piperazine Carboxamides Containing Oxygen and Used as Dopamine D3 Antagonists” (Schwarz Pharma AG, priority 2004, published 2008).
